Laboratory results published in US20240417404A1, “CRYSTALLINE FORMS OF N-[4-[4-(4-MORPHOLINYL)-7H-PYRROLO[2,3-d]PYRIMIDIN-6-YL]PHENYL]-4-[[3(R)-[(1-OXO-2-PROPEN-1-YL)AMINO]-1-[sequence]]METHYL]-2-PYRIDINECARBOXAMIDE AS IRREVERSIBLE INHIBITORS OF MENIN-MLL INTERACTION” (BIOMEA FUSION, INC., priority 2023, published 2024).
“Also recorded” adds a separate entry of the source.

Columns and labels:
[1] = test system: KRAS and MEN1 expression in MiaPaCa-2 cells; assay: RNA-seq gene expression in MiaPaCa-2 cells; assay type: cell-based, human; details: 0.5 μM and 1 μM, twenty-four hours
Experimental: MOLM-13 and MiaPaCa-2 cells were incubated with Compound A for twenty-four hours and were analyzed by RNA-seq on an Illumina NextSeq 550 platform. […] Cell viability was measured using CellTiter Glo. Human ex vivo PDX tissue models harboring KRAS mutations were cultured with Compound A and clinical reversible menin inhibitors for six days. Cell viability was measured using CellTiter Glo.

[2] = test system: DB; assay: DLBCL cell line proliferation (Cell Titer Glo, four days): DB; assay type: cell-based; details: DHL
Experimental: DLBCL cell line TOLEDO was cultured in the presence of Compound A or clinical reversible menin inhibitors for six and fourteen hours. Menin protein expression was reduced up to 60% at 1 μM by Compound A after fourteen hours compared to clinical reversible inhibitors at <20% at similar concentrations. Menin protein expression was measured by the Wes system and analyzed using the Compass software (automated western blotting, Protein Simple). Signal was normalized to GAPDH and referenced to DMSO control (FIG. 36E). DLBCL and MM cell lines were cultured with Compound A, bortezomib (PS-341), or DMSO for four days and cell proliferation was measured by Cell Titer Glo. Ex vivo studies of DLBCL and MM models were conducted by measurement of cell proliferation (Cell Titer Glo) after six days of treatment with Compound A, PS-341, or DMSO control.

C=CC(=O)N[C@@H]1CCCN(Cc2ccnc(C(=O)Nc3ccc(-c4cc5c(N6CCOCC6)ncnc5[nH]4)cc3)c2)C1 [Compound A, N-[4-[4-(4-morpholinyl)-7H-pyrrolo[2,3-d]pyrimidin-6-yl]phenyl]-4-[[3(R)-[(1-oxo-2-propen-1-yl)amino]-1-piperidinyl]methyl]-2-pyridinecarboxamide]
KRAS and MEN1 expression levels [1]: marked reduction; also recorded: dramatically decreased | Average % Max Inhibition by Compound A ([2]; MYC/BCL2): 98.5% | IC50 ([2]; Homo sapiens, MYC/BCL2, read-out: Average IC50 ± Standard Deviation): 407 ± 67 nM
